The nature of the assay: Ratio between antioxidant activities determined employing ABTS and DPPH methods.

Each structure is given as a SMILES string.

Consider `COc1cc(O)c2c(=O)cc(-c3ccc(O)c(O)c3)oc2c1`, for which the Ratio is 3.4.
The figure for `COc1cc(O)cc2oc(-c3ccc(O)cc3)cc(=O)c12` is 143; for `COc1ccc(-c2cc(=O)c3c(OC)cc(O)cc3o2)cc1O` it is 126.
Regarding `COc1cc(OC)c2c(=O)c(OC)c(-c3ccc(O)c(OC)c3)oc2c1`, the Ratio turned out to be 125.
On to `COc1cc(-c2oc3cc(O)cc(OC)c3c(=O)c2OC)ccc1O`, for which the Ratio amounted to 6.6.
With `COc1cc(O)cc2oc(-c3ccccc3)c(OC(C)=O)c(=O)c12`, the Ratio was determined as 160.
For the molecule `COc1c(-c2ccccc2)oc2cc(O)cc(OC)c2c1=O`, the Ratio is 6.8.
The figure for `COc1cc(O)cc2oc(-c3ccccc3)cc(=O)c12` is 170.
